Columns and labels:
[1] = test system: Transformed human keratinocyte (HaCaT) cells stimulated with TNFα and IFNγ; test: JAK inhibitors in TNFα/IFNγ stimulated keratinocytes, gene expression (QuantiGene Plex); details: 24 hours, normalized to HPRT1, mean ± standard error
[2] = test system: Transformed human keratinocyte (HaCaT) cells stimulated with TNFα and IFNγ; test: JAK inhibitors in TNFα/IFNγ stimulated keratinocytes, inflammatory mediators in media (ProCarta Multiplex Immunoassay); details: mean ± 1 standard error
[3] = molecular target: human JAK1 (a.a. 837-1142) (Homo sapiens, UniProt P23458); test: In vitro JAK kinase assay (HTRF), JAK1; format: biochemical; details: 1 mM ATP
[4] = test system: human JAK1 (a.a. 837-1142); test: In vitro JAK kinase assay (HTRF), JAK1; format: biochemical; details: IC50 ratio at 1 mM ATP
[5] = TNFα (25 ng/mL) and IFNγ (25 ng/mL), drug 25 nM
[6] = TNFα (25 ng/mL) and IFNγ (25 ng/mL), drug 50 nM
[7] = TNFα (25 ng/mL) and IFNγ (25 ng/mL), drug 100 nM
[8] = TNFα (25 ng/mL) and IFNγ (25 ng/mL), drug 200 nM
[9] = TNFα (25 ng/mL) and IFNγ (25 ng/mL) stimulation, drug 25 nM
[10] = TNFα (25 ng/mL) and IFNγ (25 ng/mL) stimulation, drug 50 nM
[11] = TNFα (25 ng/mL) and IFNγ (25 ng/mL) stimulation, drug 100 nM
[12] = TNFα (25 ng/mL) and IFNγ (25 ng/mL) stimulation, drug 200 nM

N#CCC1(n2cc(-c3ncnc4[nH]ccc34)cn2)CN(C2CCN(C(=O)c3ccnc(C(F)(F)F)c3F)CC2)C1 [Compound 1, {1-{1-[3-Fluoro-2-(trifluoromethyl)isonicotinoyl]piperidin-4-yl}-3-[4-(7H-pyrrolo[2,3-d]pyrimidin-4-yl)-1H-pyrazol-1-yl]azetidin-3-yl}acetonitrile]
IL-1α MFI [1, 5]: 1288.02 ± 20
IL-6 MFI [1, 5]: 130.24 ± 3.84
JAK1 MFI [1, 5]: 216.23 ± 6.41
JAK2 MFI [1, 5]: 109.39 ± 2.8
JAK3 MFI [1, 5]: 0.84 ± 0.12
STAT1 MFI [1, 5]: 2868.69 ± 202.69
STAT3 MFI [1, 5]: 1466.73 ± 66.75
STAT4 MFI [1, 5]: 6.00 ± 0.46
STAT5A MFI [1, 5]: 23.69 ± 1.63
STAT6 MFI [1, 5]: 1004.82 ± 23.76
TYK2 MFI [1, 5]: 292.92 ± 7.99
IL-1α MFI [1, 6]: 1258.76 ± 23.63
IL-6 MFI [1, 6]: 122.69 ± 4.36
JAK1 MFI [1, 6]: 210.42 ± 10.89
JAK2 MFI [1, 6]: 101 ± 2.26
JAK3 MFI [1, 6]: 0.83 ± 0.15
STAT1 MFI [1, 6]: 2862.58 ± 163.98
STAT3 MFI [1, 6]: 1437.28 ± 60.69
STAT4 MFI [1, 6]: 6.22 ± 0.42
STAT5A MFI [1, 6]: 22.32 ± 2.16
STAT6 MFI [1, 6]: 990.05 ± 21.06
TYK2 MFI [1, 6]: 287.31 ± 11.08
IL-1α MFI [1, 7]: 1162.35 ± 23.34
IL-6 MFI [1, 7]: 111.07 ± 4.74
JAK1 MFI [1, 7]: 205.03 ± 11.49
JAK2 MFI [1, 7]: 94.5 ± 2.65
JAK3 MFI [1, 7]: 0.92 ± 0.13
STAT1 MFI [1, 7]: 2790.32 ± 176.4
STAT3 MFI [1, 7]: 1373.34 ± 55.51
STAT4 MFI [1, 7]: 6.21 ± 0.48
STAT5A MFI [1, 7]: 20.87 ± 2.1
STAT6 MFI [1, 7]: 987.64 ± 15.75
TYK2 MFI [1, 7]: 284.15 ± 9.62
IL-1α MFI [1, 8]: 1126.94 ± 26.22
IL-6 MFI [1, 8]: 93.03 ± 3.25
JAK1 MFI [1, 8]: 195.97 ± 10.45
JAK2 MFI [1, 8]: 89.16 ± 3.43
JAK3 MFI [1, 8]: 0.79 ± 0.15
STAT1 MFI [1, 8]: 2857.2 ± 174.57
STAT3 MFI [1, 8]: 1400.77 ± 58.44
STAT4 MFI [1, 8]: 6.27 ± 0.56
STAT5A MFI [1, 8]: 19.2 ± 1.94
STAT6 MFI [1, 8]: 985.17 ± 29.31
TYK2 MFI [1, 8]: 277.52 ± 8.67
IL-1α MFI ([1]; no stimulation, drug 200 nM): 85.16 ± 6.50
IL-6 MFI ([1]; no stimulation, drug 200 nM): 4.97 ± 0.36
JAK1 MFI ([1]; no stimulation, drug 200 nM): 171.53 ± 9.49
JAK2 MFI ([1]; no stimulation, drug 200 nM): 25.21 ± 1.12
JAK3 MFI ([1]; no stimulation, drug 200 nM): 0.63 ± 0.10
STAT1 MFI ([1]; no stimulation, drug 200 nM): 535.07 ± 22.13
STAT3 MFI ([1]; no stimulation, drug 200 nM): 732.19 ± 23.03
STAT4 MFI ([1]; no stimulation, drug 200 nM): 4.01 ± 0.45
STAT5A MFI ([1]; no stimulation, drug 200 nM): 1.44 ± 0.41
STAT6 MFI ([1]; no stimulation, drug 200 nM): 740.11 ± 34.98
TYK2 MFI ([1]; no stimulation, drug 200 nM): 217.28 ± 10.09
IL-1α concentration in media [2, 9]: 7.34 ± 0.31 pg/mL
IL-6 concentration in media [2, 9]: 749.64 ± 32.94 pg/mL
IP-10/CXCL10 concentration in media [2, 9]: 4068.98 ± 507.12 pg/mL
MIP1α concentration in media [2, 9]: 103.81 ± 3.29 pg/mL
RANTES concentration in media [2, 9]: 203.77 ± 12.55 pg/mL
IL-1α concentration in media [2, 10]: 7.06 ± 0.37 pg/mL
IL-6 concentration in media [2, 10]: 674.21 ± 27.15 pg/mL
IP-10/CXCL10 concentration in media [2, 10]: 3872.74 ± 295.01 pg/mL
MIP1α concentration in media [2, 10]: 100.64 ± 4.66 pg/mL
RANTES concentration in media [2, 10]: 198.35 ± 15.1 pg/mL
IL-1α concentration in media [2, 11]: 7 ± 0.41 pg/mL
IL-6 concentration in media [2, 11]: 643.8 ± 27.14 pg/mL
IP-10/CXCL10 concentration in media [2, 11]: 4050.7 ± 471.31 pg/mL
MIP1α concentration in media [2, 11]: 91.52 ± 5.05 pg/mL
RANTES concentration in media [2, 11]: 194.21 ± 12.67 pg/mL
IL-1α concentration in media [2, 12]: 6.16 ± 0.35 pg/mL
IL-6 concentration in media [2, 12]: 568.73 ± 24.74 pg/mL
IP-10/CXCL10 concentration in media [2, 12]: 4071.78 ± 411.22 pg/mL
MIP1α concentration in media [2, 12]: 83.1 ± 2.77 pg/mL
RANTES concentration in media [2, 12]: 183.18 ± 13.92 pg/mL
IL-1α concentration in media ([2]; no stimulation, drug 200 nM): 0.29 ± 0.03 pg/mL
IL-6 concentration in media ([2]; no stimulation, drug 200 nM): 28.49 ± 2.89 pg/mL
IP-10/CXCL10 concentration in media ([2]; no stimulation, drug 200 nM): 19.83 ± 0.40 pg/mL
MIP1α concentration in media ([2]; no stimulation, drug 200 nM): 2.75 ± 0.26 pg/mL
RANTES concentration in media ([2]; no stimulation, drug 200 nM): 8.42 ± 0.51 pg/mL
IC50 [3]: < 10 nM
JAK2/JAK1 [4]: >10

N#CC[C@]1(n2cc(-c3ncnc4[nH]ccc34)cn2)C[C@H](N2CCC(Oc3cc(CN4CCC[C@@H]4CO)cc(C(F)(F)F)n3)CC2)C1 [Compound 13, {trans-3-(4-{[4-{[(2R)-2-(hydroxymethyl)pyrrolidin-1-yl]methyl}-6-(trifluoromethyl)pyridin-2-yl]oxy}piperidin-1-yl)-1-[4-(7H-pyrrolo[2,3-d]pyrimidin-4-yl)-1H-pyrazol-1-yl]cyclobutyl}acetonitrile]
IC50 [3]: < 10 nM
JAK2/JAK1 [4]: >10

C[C@H](NC(=O)c1cc(F)c(N2CC(CC#N)(n3cc(-c4ncnc5[nH]ccc45)cn3)C2)cc1F)C(F)(F)F [Compound 16, 4-{3-(cyanomethyl)-3-[4-(7H-pyrrolo[2,3-d]pyrimidin-4-yl)-1H-pyrazol-1-yl]azetidin-1-yl}-2,5-difluoro-N-[(1S)-2,2,2-trifluoro-1-methylethyl]benzamide]
IC50 [3]: < 10 nM
JAK2/JAK1 [4]: >10

N#CCC1(n2cc(-c3ncnc4[nH]ccc34)cn2)CN([C@H]2CC[C@@H](Oc3cc(CCO)nc(C(F)(F)F)n3)CC2)C1 [Compound 18, {1-(cis-4-{[6-(2-hydroxyethyl)-2-(trifluoromethyl)pyrimidin-4-yl]oxy}cyclohexyl)-3-[4-(7H-pyrrolo[2,3-d]pyrimidin-4-yl)-1H-pyrazol-1-yl]azetidin-3-yl}acetonitrile]
IC50 [3]: < 10 nM
JAK2/JAK1 [4]: >10

CCNCc1cc(O[C@H]2CC[C@@H](N3CC(CC#N)(n4cc(-c5ncnc6[nH]ccc56)cn4)C3)CC2)nc(C(F)(F)F)c1 [Compound 19, {1-(cis-4-{[4-[(ethylamino)methyl]-6-(trifluoromethyl)pyridin-2-yl]oxy}cyclohexyl)-3-[4-(7H-pyrrolo[2,3-d]pyrimidin-4-yl)-1H-pyrazol-1-yl]azetidin-3-yl}acetonitrile]
IC50 [3]: < 10 nM
JAK2/JAK1 [4]: >10

CC(C)(O)c1cc(O[C@H]2CC[C@@H](N3CC(CC#N)(n4cc(-c5ncnc6[nH]ccc56)cn4)C3)CC2)nc(C(F)(F)F)c1 [Compound 20, {1-(cis-4-{[4-(1-hydroxy-1-methylethyl)-6-(trifluoromethyl)pyridin-2-yl]oxy}cyclohexyl)-3-[4-(7H-pyrrolo[2,3-d]pyrimidin-4-yl)-1H-pyrazol-1-yl]azetidin-3-yl}acetonitrile]
IC50 [3]: < 10 nM
JAK2/JAK1 [4]: >10

N#CCC1(n2cc(-c3ncnc4[nH]ccc34)cn2)CN([C@H]2CC[C@@H](Oc3cc(CN4CC[C@@H](O)C4)cc(C(F)(F)F)n3)CC2)C1 [Compound 21, {1-(cis-4-{[4-{[(3R)-3-hydroxypyrrolidin-1-yl]methyl}-6-(trifluoromethyl)pyridin-2-yl]oxy}cyclohexyl)-3-[4-(7H-pyrrolo[2,3-d]pyrimidin-4-yl)-1H-pyrazol-1-yl]azetidin-3-yl}acetonitrile]
IC50 [3]: < 10 nM
JAK2/JAK1 [4]: >10

N#CCC1(n2cc(-c3ncnc4[nH]ccc34)cn2)CN([C@H]2CC[C@@H](Oc3cc(CN4CC[C@H](O)C4)cc(C(F)(F)F)n3)CC2)C1 [Compound 22, {1-(cis-4-{[4-{[(3S)-3-hydroxypyrrolidin-1-yl]methyl}-6-(trifluoromethyl)pyridin-2-yl]oxy}cyclohexyl)-3-[4-(7H-pyrrolo[2,3-d]pyrimidin-4-yl)-1H-pyrazol-1-yl]azetidin-3-yl}acetonitrile]
IC50 [3]: < 10 nM
JAK2/JAK1 [4]: >10

C[C@@H](CO)NCc1cc(OC2CCN([C@H]3C[C@](CC#N)(n4cc(-c5ncnc6[nH]ccc56)cn4)C3)CC2)nc(C(F)(F)F)c1 [Compound 23, {trans-3-(4-{[4-({[(1S)-2-hydroxy-1-methylethyl]amino}methyl)-6-(trifluoromethyl)pyridin-2-yl]oxy}piperidin-1-yl)-1-[4-(7H-pyrrolo[2,3-d]pyrimidin-4-yl)-1H-pyrazol-1-yl]cyclobutyl}acetonitrile]
IC50 [3]: < 10 nM
JAK2/JAK1 [4]: >10

C[C@@H](O)CNCc1cc(OC2CCN([C@H]3C[C@](CC#N)(n4cc(-c5ncnc6[nH]ccc56)cn4)C3)CC2)nc(C(F)(F)F)c1 [Compound 24, {trans-3-(4-{[4-({[(2R)-2-hydroxypropyl]amino}methyl)-6-(trifluoromethyl)pyridin-2-yl]oxy}piperidin-1-yl)-1-[4-(7H-pyrrolo[2,3-d]pyrimidin-4-yl)-1H-pyrazol-1-yl]cyclobutyl}acetonitrile]
IC50 [3]: < 10 nM
JAK2/JAK1 [4]: >10

C[C@H](O)CNCc1cc(OC2CCN([C@H]3C[C@](CC#N)(n4cc(-c5ncnc6[nH]ccc56)cn4)C3)CC2)nc(C(F)(F)F)c1 [Compound 25, {trans-3-(4-{[4-({[(2S)-2-hydroxypropyl]amino}methyl)-6-(trifluoromethyl)pyridin-2-yl]oxy}piperidin-1-yl)-1-[4-(7H-pyrrolo[2,3-d]pyrimidin-4-yl)-1H-pyrazol-1-yl]cyclobutyl}acetonitrile]
IC50 [3]: < 10 nM
JAK2/JAK1 [4]: >10

N#CC[C@]1(n2cc(-c3ncnc4[nH]ccc34)cn2)C[C@H](N2CCC(Oc3cc(CCO)cc(C(F)(F)F)n3)CC2)C1 [Compound 26, {trans-3-(4-{[4-(2-hydroxyethyl)-6-(trifluoromethyl)pyridin-2-yl]oxy}piperidin-1-yl)-1-[4-(7H-pyrrolo[2,3-d]pyrimidin-4-yl)-1H-pyrazol-1-yl]cyclobutyl}acetonitrile]
IC50 [3]: < 10 nM
JAK2/JAK1 [4]: >10

Source: patent publication US11304949B2, “Treatment of hidradenitis suppurativa using JAK inhibitors” (Incyte Corporation, priority 2018, dated 2022)
